Tested on: TRβ1 gene
Assay: RT-PCR for TRβ1 transcript in breast cancer cell lines after 5-azaC treatment
Format: cell-based
Conditions: MCF7 breast cancer cell line
Text: The region of most common LOH in the experiments described in Example I include the region of the TRβ1 gene. Therefore, we evaluated TRβ1 gene expression in breast cancer cell lines by RT-PCR, using primers encompassing exons 4–7. The primers used for RT-PCR of the TRβ1 transcript were TRβ-F 5′ […] 3′ (forward) (SEQ ID NO:1) and TRβ-R 5′ TGAGCTCCCATTCCTCGTC 3′ (reverse) (SEQ ID NO:2). Presence of a TRβ1 transcript was indicated by the presence of a 500 bp RT-PCR product using template mRNA isolated from non-cancerous or breast cancer cell lines. As a control, corresponding GAPDH transcript levels for each sample was measured within the same PCR reaction mixture by amplifying a 250 bp fragment using the following primers 5′ […] 3′ (forward) (SEQ ID NO:3) and 5′ […] 3′ (reverse) (SEQ ID NO:4). […] Fluorescent in situ hybribization (FISH) analysis was carried out on the cells to determine the copy number of the TRβ1 gene. FISH data is reported as the percentage of cells in which TRβ1 copy number was fewer than the centromeric signal for chromosome 3. The breast cancer cell lines that were used in this study include DU4475, MDA435, SKBR3, MCF7, BT20, MDA157, MDA231, BT474, CAMA1 and T47D. All of these cell lines are available from American Type Culture Collection, Manassas, Va.

Nc1ncn([C@@H]2O[C@H](CO)[C@@H](O)[C@H]2O)c(=O)n1 [5-azaC]
RT-PCR for TRβ1, before versus after 5-aza C treatment: *RT-PCR for MCF7 was the same before and after 5-aza C treatment

Source: patent US7056663B2, “Prognostic methods for breast cancer” (California Pacific Medical Center, priority 2001, dated 2006)
